According to patent US9930890B2 (priority 2010, dated 2018):

Columns and labels:
Phytophthora infestans = type: in vivo; conditions: tomato plants, protective spray, active ingredient concentration 100 ppm, evaluation 7 days after inoculation; 0% = control, 100% = no infection
[1] = for logp [a]: pH 2.7; for logp [b]: pH 7.8

Structure (SMILES)	Eff. % (Phytophthora infestans) [%]	logp [a] [1]	logp [b] [1]
CC(C)ON=Cc1cccc(C2CC(c3csc(C4CCN(C(=O)Cn5nc(C(F)F)cc5C(F)F)CC4)n3)=NO2)c1 (mixture of isomers) [I-6]	100		
Cc1cc(C(F)(F)F)nn1CC(=O)N1CCC(c2nc(C3=NOC(c4cccc(C=NOC(C)C)c4)C3)cs2)CC1 (mixture of isomers) [I-8]	100		
CC(=NOC(C)C)c1cccc(C2CC(c3csc(C4CCN(C(=O)Cn5nc(C(F)(F)F)cc5C)CC4)n3)=NO2)c1 (mixture of isomers) [I-9]	100		
CCON=Cc1cccc(C2CC(c3csc(C4CCN(C(=O)Cn5nc(C(F)(F)F)cc5C)CC4)n3)=NO2)c1 (mixture of isomers) [I-11]	100	3.8[a]	
CCON=Cc1cccc(C2CC(c3csc(C4CCN(C(=O)Nc5cc(Cl)ccc5C)CC4)n3)=NO2)c1 (mixture of isomers) [I-12]	95		
Cc1ccc(Cl)cc1NC(=O)N1CCC(c2nc(C3=NOC(c4cccc(C=NOC(C)C)c4)C3)cs2)CC1 (mixture of isomers) [I-13]	100	4.4[a]	
CC(=NOC(C)C)c1cccc(C2CC(c3csc(C4CCN(C(=O)Cn5nc(C(F)F)cc5C(F)F)CC4)n3)=NO2)c1 (mixture of isomers) [I-20]	100		
CCON=Cc1cccc(C2CC(c3csc(C4CCN(C(=O)Cn5nc(C(F)F)cc5C(F)F)CC4)n3)=NO2)c1 (mixture of isomers) [I-24]	100		
CC(=NOC(C)C)c1ccccc1C1CC(c2csc(C3CCN(C(=O)Cn4nc(C(F)F)cc4C(F)F)CC3)n2)=NO1 (mixture of isomers) [I-28]	100		
CC(=NOC(C)C)c1ccccc1C1CC(c2csc(C3CCN(C(=O)Cn4nc(C(F)(F)F)cc4C)CC3)n2)=NO1 (mixture of isomers) [I-30]	100		
CCON=Cc1ccccc1C1CC(c2csc(C3CCN(C(=O)Nc4cc(Cl)ccc4C)CC3)n2)=NO1 (mixture of isomers) [I-33]	100		
Cc1ccc(Cl)cc1NC(=O)N1CCC(c2nc(C3=NOC(c4ccccc4C=NOC(C)C)C3)cs2)CC1 (mixture of isomers) [I-37]	100		
Cc1cc(C(F)(F)F)nn1CC(=O)N1CCC(c2nc(C3=NOC(c4ccccc4C=NOC(C)C)C3)cs2)CC1 (mixture of isomers) [I-39]	100		
CC(C)ON=Cc1ccccc1C1CC(c2csc(C3CCN(C(=O)Cn4nc(C(F)F)cc4C(F)F)CC3)n2)=NO1 (mixture of isomers) [I-42]	100		
COCC[S+]([O-])Cc1ccccc1C1CC(c2csc(C3CCN(C(=O)Cn4nc(C(F)F)cc4C(F)F)CC3)n2)=NO1 (mixture of isomers) [I-56]	94	2.52[a]	
CC1(c2ccccc2OS(C)(=O)=O)CC(c2csc(C3CCN(C(=O)Cn4nc(C(F)F)cc4C(F)F)CC3)n2)=NO1 (racemic) [I-43]	94	3.16[a],	3.09[b]
Cc1cc(C(F)F)nn1CC(=O)N1CCC(c2nc(C3=NOC(C)(c4ccccc4OS(C)(=O)=O)C3)cs2)CC1 (racemic) [I-44]	94	2.86[a],	2.8[b]
N#CCOc1ccc(Cl)cc1C1CC(c2csc(C3CCN(C(=O)Cn4nc(C(F)F)cc4C(F)F)CC3)n2)=NO1 (racemic) [I-58]		3.27[a],	3.23[b]
CS(=O)(=O)Oc1ccc(Cl)cc1C1CC(c2csc(C3CCN(C(=O)Cn4nc(C(F)F)cc4C(F)F)CC3)n2)=NO1 (racemic) [I-59]		3.27[a],	3.25[b]
Cc1ccc(C2CC(c3csc(C4CCN(C(=O)Cn5nc(C(F)(F)F)cc5C)CC4)n3)=NO2)c(OS(C)(=O)=O)c1 (centres unmarked) [I-66]		3.26[a],	3.21[b]

Structure (SMILES)	Eff. % (Phytophthora infestans) [%]	logp [a] [1]	logp [b] [1]
Cc1ccc(OS(C)(=O)=O)c(C2CC(c3csc(C4CCN(C(=O)Cn5nc(C(F)F)cc5C(F)F)CC4)n3)=NO2)c1 (centres unmarked) [I-67]		3.22[a],	3.11[b]
C#CCOCc1cccc(F)c1C1CC(c2csc(C3CCN(C(=O)Cn4nc(C(F)F)cc4C(F)F)CC3)n2)=NO1 (centres unmarked) [I-68]		3.3[a]	
CC(=O)OCc1cccc(F)c1C1CC(c2csc(C3CCN(C(=O)Cn4nc(C(F)F)cc4C(F)F)CC3)n2)=NO1 (centres unmarked) [I-69]		3.12[a]	
Cc1ccc(C2CC(c3csc(C4CCN(C(=O)Cn5nc(C(F)F)cc5C(F)F)CC4)n3)=NO2)c(OS(C)(=O)=O)c1 (centres unmarked) [I-72]		3.2[a],	3.12[b]
Cc1cc(C(F)F)n(CC(=O)N2CCC(c3nc(C4=NOC(c5ccccc5OS(C)(=O)=O)C4)cs3)CC2)n1 (centres unmarked) [I-73]		2.65[a],	2.58[b]
Cc1cc(C(F)(F)F)nn1CC(=O)N1CCC(c2nc(C3=NOC(c4c(F)ccc(OS(C)(=O)=O)c4F)C3)cs2)CC1 (centres unmarked) [I-79]		3.02[a],	2.94[b]
N#CCOc1ccc(F)c(C2CC(c3csc(C4CCN(C(=O)Cn5nc(C(F)F)cc5C(F)F)CC4)n3)=NO2)c1F (centres unmarked) [I-80]		2.96[a],	2.85[b]
COc1cccc(OS(C)(=O)=O)c1C1(C)CC(c2csc(C3CCN(C(=O)Cn4nc(C(F)F)cc4C(F)F)CC3)n2)=NO1 (centres unmarked) [I-88]		3.17[a],	3.11[b]
COCC[S+]([O-])Cc1ccccc1C1CC(c2csc(C3CCN(C(=O)Cn4nc(C(F)(F)F)cc4C)CC3)n2)=NO1 (centres unmarked) [I-90]		2.53[a]	
Cc1cc(OS(C)(=O)=O)c(C2(C)CC(c3csc(C4CCN(C(=O)Cn5nc(C(F)F)cc5C(F)F)CC4)n3)=NO2)cc1C (centres unmarked) [I-91]		3.63[a],	3.58[b]
COc1ccc(OS(C)(=O)=O)c(C2(C)CC(c3csc(C4CCN(C(=O)Cn5nc(C(F)F)cc5C(F)F)CC4)n3)=NO2)c1OC (centres unmarked) [I-92]		3.28[a],	3.25[b]
CCS(=O)(=O)Oc1ccc(C2CC(c3csc(C4CCN(C(=O)Cn5nc(C(F)F)cc5C(F)F)CC4)n3)=NO2)cc1 (centres unmarked) [I-105]		2.97[a],	2.96[b]
O=C(Cn1nc(C(F)F)cc1C(F)F)N1CCC(c2nc(C3=NOC(c4ccc(OS(=O)(=O)C5CC5)cc4)C3)cs2)CC1 (centres unmarked) [I-106]		3.06[a],	3.05[b]
Cc1ccc(OCC#N)c(C2CC(c3csc(C4CCN(C(=O)Cn5nc(C(F)F)cc5C(F)F)CC4)n3)=NO2)c1 (centres unmarked) [I-141]		3.17[a],	3.15[b]
Cc1ccc(C2CC(c3csc(C4CCN(C(=O)Cn5nc(C(F)(F)F)cc5C)CC4)n3)=NO2)c(OCC#N)c1 (centres unmarked) [I-142]		3.29[a],	3.22[b]
Cc1cc(C(F)F)nn1CC(=O)N1CCC(c2nc(C3=NOC(c4ccccc4OCC#N)C3)cs2)CC1 (centres unmarked) [I-143]		2.6[a],	2.61[b]
Cc1ccc(C2CC(c3csc(C4CCN(C(=O)Cn5nc(C(F)F)cc5C(F)F)CC4)n3)=NO2)c(OCC#N)c1 (centres unmarked) [I-144]		3.15[a],	3.13[b]
CS(=O)(=O)Oc1c(Cl)cccc1C1CC(c2csc(C3CCN(C(=O)Cn4nc(C(F)F)cc4C(F)F)CC3)n2)=NO1 (centres unmarked) [I-145]		3.19[a],	3.19[b]
N#CCOc1c(Cl)cccc1C1CC(c2csc(C3CCN(C(=O)Cn4nc(C(F)F)cc4C(F)F)CC3)n2)=NO1 (centres unmarked) [I-146]		3.14[a],	3.26[b]
